{"source": "a melting point compilation (Tetko et al.; mined from patent text by program, amines drawn as free bases though some values may be those of a salt)", "data": [{"units": {"melting point": "°C"}, "values": [{"compound": "CS(=O)(=O)c1ccc(Oc2ccc3[nH]c(C4=NCC(CC(=O)O)S4)cc3c2)cn1", "note": "(stereo not given)", "melting point": "205 to 208"}, {"compound": "CC(C)N(Cc1ccccc1)c1ncnc2c(N3CCOCC3)nc(N3CCC(N(C)C)CC3)nc12", "melting point": "122 to 125"}, {"compound": "N#CNc1ccccc1-c1ccccc1", "melting point": "85 to 87"}, {"compound": "Nc1ccc(C(=O)N2CCCCc3sccc32)cc1", "melting point": "168 to 172"}, {"compound": "CSc1ccc(C[C@H](CO)NC(=O)OCc2ccccc2)cc1", "melting point": "115 to 117"}, {"compound": "CC(NC(=O)CN1CCCC1=O)C(=O)N1CC(=O)NC1(C)C", "note": "(stereo not given)", "melting point": "198 to 200"}, {"compound": "CCC(=O)CC(=O)C1CCC2C3CCC4CC(O)CCC4(C)C3C(=O)CC12C", "note": "(stereo not given)", "melting point": "128 to 130"}, {"compound": "Cc1ccccc1-c1cc(C(F)(F)F)n2cnc(C#N)c2n1", "melting point": 151}, {"compound": "CNC1=NN(c2cccc(Cl)c2)CC1C", "note": "(stereo not given)", "melting point": "75 to 76"}, {"compound": "O=C(O)CCc1c(Br)cccc1C(F)(F)F", "melting point": "122 to 126"}, {"compound": "COc1ccc(-c2nc3cccnc3n2CC(=O)O)cc1", "melting point": "260 to 263"}, {"compound": "O=[N+]([O-])C(CN1CCN(c2ccccc2)CC1)c1ccccc1", "note": "(stereo not given)", "melting point": 76}, {"compound": "CN(C)C(=O)c1ccccc1CS(N)(=O)=O", "melting point": "149 to 154"}, {"compound": "CN(C)c1ccc(CN=C(Cc2ccccc2)N2CC3C(=O)CCC(c4ccccc4)(c4ccccc4)C3C2)cc1", "note": "(stereo not given)", "melting point": 186}, {"compound": "Cn1cc(Oc2ccccc2)c(=S)c(-c2cccc(C(F)(F)F)c2)c1", "melting point": "127 to 131"}, {"compound": "O=C1N(O)CC12CCOc1cc(Cl)c(Cl)cc12", "note": "(stereo not given)", "melting point": "157 to 158"}, {"compound": "O=C(CC1CCCCC1)NC1CC(C(=O)O)Nc2cc(Cl)cc(Cl)c21", "note": "(stereo not given)", "melting point": "197 to 200"}, {"compound": "CCN(CC)C(=O)/C(=C/C=C/c1cc2ccccc2[nH]1)OC", "melting point": "141 to 143"}, {"compound": "CCC12CCC3C4CCC(=O)C=C4C=CC3C1CCC2OC(C)=O", "note": "(stereo not given)", "melting point": "163 to 177"}, {"compound": "CCc1nn(-c2c(Cl)cc(C(F)(F)F)cc2Cl)c(Cl)c1-c1nc(C#N)c(C#N)[nH]1", "melting point": "75 to 78"}, {"compound": "O=C(Nc1cccc2c1C(=O)N(CCN1CCN(c3ccncc3)CC1)C2=O)c1ccc(Cl)s1", "melting point": 168}, {"compound": "CCOC(=O)N1C(=O)OC(c2c(Cl)cccc2OC)C1=O", "note": "(stereo not given)", "melting point": "196 to 200"}, {"compound": "COc1ccc2c(c1)C(=O)CC1C2C(OC(=O)C(C)(C)C)CC2(C)C(OC(=O)C(C)(C)C)CCC12", "note": "(stereo not given)", "melting point": "183 to 184"}, {"compound": "CC(=O)Oc1cc2c(c(OC(C)=O)c1)C1CCC3(C)C(=O)CCC3C1CC2", "note": "(stereo not given)", "melting point": "179 to 180"}, {"compound": "COc1c(C2CCN(CCCCNC(=O)c3ccc(-c4ccc(NS(=O)(=O)CC(F)(F)F)cc4)cc3)CC2)ccc2c1CCCC2", "melting point": "182 to 184"}, {"compound": "O=C(O)CCCCCCC1=CC(O)CC1=O", "note": "(stereo not given)", "melting point": "47 to 48.5"}, {"compound": "CSc1nc(=O)[nH]cc1Cl", "melting point": 254}, {"compound": "CC(C)c1ccc(S(=O)(=O)O)cc1", "melting point": "35.2 to 36.7"}, {"compound": "O=C1c2ccccc2CCn2cc(SC(F)(F)F)cc21", "melting point": "77 to 78"}, {"compound": "N#Cc1ccc2sc3c(c2c1)CC(CO)CC3", "note": "(stereo not given)", "melting point": "165 to 166"}, {"compound": "N#Cc1cccc(NC(=O)CN2CCC(Cc3ccc(F)cc3)CC2)c1", "melting point": "101 to 103"}, {"compound": "COc1ccccc1N1CCN(CCN(C(=O)C2CCCCC2)c2ccccc2N)CC1", "melting point": "138 to 140"}, {"compound": "O=C1CC[C@@H](C(=O)Nc2ccc(-c3ncc(C(=O)O)c(O)n3)cc2)N1", "melting point": "> 300"}, {"compound": "C=CCNC(=O)C=c1sc2n(c1=O)Cc1ccccc1N=2", "melting point": "275 to 276"}, {"compound": "CN1C(=O)C(c2ccc(OC(F)F)cc2)(c2cccc(CCCC(F)(F)F)c2)N=C1N", "note": "(stereo not given)", "melting point": 70}, {"compound": "N#CCOc1ccc2cc(-c3csc(-c4ccccc4)n3)ccc2c1", "melting point": "113 to 117"}, {"compound": "CC(C)(Cl)C(=O)c1ccc(C(Br)c2ccc(C(=O)C(C)(C)Cl)cc2)cc1", "melting point": 93}, {"compound": "COC(=O)C(N)C(C)(C)SSc1ccccc1C(=O)Nc1ccc(S(N)(=O)=O)cc1", "note": "(stereo not given)", "melting point": "140 to 142"}, {"compound": "Cc1cc(CO)cc(C)c1O", "melting point": "102 to 104"}, {"compound": "C=CCOc1cc(CNc2nc(C)nc(C)c2Cl)ccc1O", "melting point": "124 to 126"}, {"compound": "Cc1nnc2ccc(-c3cccc(N4CCCC4=O)c3)nn12", "melting point": "235 to 237"}, {"compound": "COc1ccccc1N1CCN(CCN(CCCN2CC=C(c3c[nH]c4cc(F)ccc34)CC2)C(C)=O)CC1", "melting point": "75 to 77"}, {"compound": "Cc1c(-c2ccc(OC(F)(F)F)cc2)[nH]c2ccc(OCc3ccccc3)cc12", "melting point": "127 to 128"}, {"compound": "COCCCCCCCCCCCCCCSCCC(=O)OC", "melting point": "31 to 32"}, {"compound": "Cn1c(=O)n(CC(=O)O)c(=O)c2cc([N+](=O)[O-])ccc21", "melting point": "217 to 220"}, {"compound": "CC1(CNC(=O)OCc2ccccc2)CCCCn2c1nc(-c1ccncn1)cc2=O", "note": "(racemic)", "melting point": "118 to 120"}, {"compound": "CCCCNc1c(C(=O)OCC)c(C)nc2c1nnn2CC", "melting point": "42 to 43"}, {"compound": "CCOC(=O)C(C)Oc1cc(-c2ccccc2)nc2ccccc12", "note": "(stereo not given)", "melting point": 80}, {"compound": "O=S(=O)(c1ccc(Oc2cncc(Br)c2)cc1)N1CCCC1", "melting point": 148}, {"compound": "CCCc1c(S)ccc2c(=O)cc(C(=O)OC)oc12", "melting point": "98 to 99"}]}]}
